This passage reports Ki results from ChEMBL document CHEMBL1147946, “3-{2-[Bis-(4-fluorophenyl)methoxy]ethyl}-6-substituted-3,6-diazabicyclo[3.1.1]heptanes as novel potent dopamine uptake inhibitors” (Bioorg Med Chem, 2007).

As a reminder, the pKi is the Ki on a negative log10 scale, so that one unit is a factor of ten. A lower pKi goes with a high Ki.

pKi: −log10 of the molar value.

This experiment deals with Sodium-dependent dopamine transporter (Rattus norvegicus, UniProt P23977). The experiment is described as follows: Inhibition of [3H]dopamine uptake at DAT in Sprague-Dawley rat striatum synaptosome. It counts as tissue-based.
Sodium-dependent dopamine transporter, sequence (P23977 whole entry): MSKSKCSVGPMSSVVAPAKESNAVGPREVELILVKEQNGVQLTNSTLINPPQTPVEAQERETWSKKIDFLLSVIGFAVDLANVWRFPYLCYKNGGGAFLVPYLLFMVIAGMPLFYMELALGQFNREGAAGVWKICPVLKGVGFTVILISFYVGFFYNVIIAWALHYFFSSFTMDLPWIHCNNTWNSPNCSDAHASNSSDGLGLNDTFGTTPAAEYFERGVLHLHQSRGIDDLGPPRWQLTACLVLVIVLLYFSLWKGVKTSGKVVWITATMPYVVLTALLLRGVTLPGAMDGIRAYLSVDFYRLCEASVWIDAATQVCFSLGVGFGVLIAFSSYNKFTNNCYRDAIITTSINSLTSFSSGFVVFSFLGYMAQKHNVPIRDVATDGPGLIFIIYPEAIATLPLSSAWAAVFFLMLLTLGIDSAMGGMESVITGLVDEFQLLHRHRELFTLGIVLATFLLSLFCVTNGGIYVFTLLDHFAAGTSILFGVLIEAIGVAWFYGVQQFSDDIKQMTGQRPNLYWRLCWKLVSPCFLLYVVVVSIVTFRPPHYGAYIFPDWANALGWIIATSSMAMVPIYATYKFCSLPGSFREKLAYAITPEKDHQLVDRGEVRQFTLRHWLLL
On to `Fc1ccc(C(OCCN2CC3CC(C2)N3Cc2cc3ccccc3o2)c2ccc(F)cc2)cc1`, for which the negative logarithm of the Ki (pKi) was 7.43. As to `Fc1ccc(C(OCCN2CC3CC(C2)N3Cc2cc3ccccc3s2)c2ccc(F)cc2)cc1`, the pKi is 7.46. In turn, `Fc1ccc(C(OCCN2CC3CC(C2)N3CC2=Cc3ccccc3C2)c2ccc(F)cc2)cc1` had a pKi of 8.19. On to `Fc1ccc(C(OCCN2CC3CC(C2)N3C/C=C/c2ccc3ccccc3c2)c2ccc(F)cc2)cc1`, for which the pKi is 7.34. As for `Fc1ccc(C(OCCN2CC3CC(C2)N3Cc2cc3ccccc3[nH]2)c2ccc(F)cc2)cc1`, the pKi was 8.26. In the case of `Fc1ccc(C(OCCN2CC3CC(C2)N3C/C=C/c2ccccc2)c2ccc(F)cc2)cc1` it was 8.04. In the case of `Fc1ccc(C(OCCN2CC3CC(C2)N3C/C=C/c2cccs2)c2ccc(F)cc2)cc1`, the pKi is 7.90.

Compound `Fc1ccc(C(OCCN2CC3CC(C2)N3C/C=C/c2ccco2)c2ccc(F)cc2)cc1` had a pKi of 8.06.

`Cc1ccccc1/C=C/CN1C2CC1CN(CCOC(c1ccc(F)cc1)c1ccc(F)cc1)C2` gave a pKi of 8.20.
